Experimental data as given in US20080206198A1, “Compounds and methods for pharmico-gene therapy of epithelial sodium channel associated disorders” (priority 2003, published 2008).
Where “and” joins values, the source holds several entries; their conditions need not be identical. Identical values can stand only once. Peptide text beside a SMILES is read from it. * marks the point of attachment. Cbz = O=C(OCc1ccccc1)*

What was measured:
A549 cells = assay: rAAV transduction of A549 cells; format: cell-based, human; settings: for induction of rAAV transduction: 24 hours post-infection
Method: (§1) C. To determine whether combinations of agents that enhance rAAV transduction efficiency have synergistic or additive effects when used in combination, cells were contacted with the proteasome modulator, doxorubicin, and the proteasome inhibitor Z-LLL or LLnL. Different AAV vectors were tested, including splicing vectors and pseudotyped rAAV. Viral stocks utilized were as follows: Av2RSVluc, 5×10^8 particle/μl; Av2RSVlucCap5 (also referred to as Av2/5 CMVLuc), 2×10^9 particle/μl; Av2CMVluc, 1.3×10^9 particle/μl; and Av2CMVlucCap5, 1.1×109 particle/μl. Combinations of agents were compared to the agents used alone to determine the efficiency of transduction. LLnL was used at 40, 200 or 400 μM, Z-LLL at 4 μM and doxorubicin at 0.5 or 1 μM when employed alone. When a combination of LLnL and doxorubicin was used, LLnL was used at 4, 10, 20, 40, 200 or 400 μM and doxorubicin at 1 or 5 μM. The apical surface of polarized airway epithelia, HeLa cells or ferret fibroblast was contacted with the agents and rAAV (5×10^9 particles per well).
(§2) LLnL and Z-LLL are two tripeptidyl aldehydes shown to inhibit calpains, cathepsins, cysteine proteases as well as the chymotrypsin-like protease activity of proteasomes (Wagner et al., 2002; Donkor, 2000; Sasaki et al., 1990). […] Both classes of proteasome inhibitors bind tightly to the proteasome complex. Dose response curves for these two proteasome-modulating agents were evaluated on IB3, A549, Hela, and primary fibroblasts. The responses were consistent for a number of cell lines and for three different promoters driving luciferase expression. For one set, CMV-driven luciferase constructs with an AAV2-based genome were employed that were packaged into AV2 or AV5 capsids. Cells were infected at various doses of AV2Luc and AV2/5Luc (MOIs 100 to 1000 particles/cell). At the time of infection, cells were treated with various concentrations of LLnL or Doxorubicin and gene expression was assayed at 24 hours post-infection. The effect of proteasome inhibitors on nuclear uptake of virus was evaluated using a previously-described protocol for fractionating viral DNA in the cytoplasm and nucleus (Xiao et al., 2002). Viral DNA content in the cytoplasmic and nuclear fractions was then evaluated by slot blot hybridization against a Luciferase DNA probe.

[1] = test system: primary human fibroblasts; format: cell-based; settings: confluent primary human fibroblasts treated prior to rAAV infection; FACS at 96 hours post-infection
Method: Initial studies were performed in confluent primary human fibroblasts since dose titrations and toxicity could be quickly assessed. Selected agents were used to treat fibroblast monolayers prior to rAAV infection. rAAV transduction was assessed at 96 hours post-infection by FACS analysis, and the percentage of dead cells was simultaneously assessed by incorporation of propidium iodide.
These tripeptides are structurally related to chloroquine but have different lipid solubility and specificity for cysteine proteases (Seglen, 1983). These molecules decrease endosomal degradation of molecules by a mechanism different than altering pH.

IB3 cells [2] = assay: AV2Luc and AV2/5Luc transduction of IB3 cells; format: cell-based, human; settings: 24 hours post-infection
Method: as §2

Solubility in ethanol = format: physicochemical
IB3 cells [3] = assay: Nuclear versus cytoplasmic viral DNA fractionation in rAAV2-infected IB3 cells; format: cell-based, human
Method: as §2

[4] = test system: polarized airway epithelia; assay: Apical rAAV (AAV2 and AAV5 capsid) infection of polarized airway epithelia with agent combinations; format: cell-based, human; settings: for concentration at which transduction was enhanced: polarized airway epithelial cells
Method: as §1

γ-ENaC gene promoter = assay: Methylation-sensitive PCR of the γ-ENaC promoter CpG island in A549 cells; format: cell-based, human; settings: A549 genomic DNA
Method: Analysis of γ-ENaC promoter CpG Methylation. The methylation status of a CpG island beginning at approximately −1.8 kb of the γ-ENaC promoter was analyzed using a previously described PCR method (Malik et al., 2001). Briefly, genomic DNA was isolated from A549 cells that had been treated with and without doxorubicin, and then digested overnight with Mbol, MboI/MspI, or Mbol/HpaII. PCR reactions were then performed using primers that flank the MspI/HpaII sites in this region. Primers: forward 5′-[…]-3′ (SEQ ID NO: 13); reverse 5′-[…]-3′ (SEQ ID NO: 14).

mouse lung [5] = assay: Intranasal AAV2-Luc with anthracyclines in Balb/c mice (lung luciferase); format: in vivo; settings: 10% HDE intranasal, day 7
Text: Animals were followed for seven days post dose.
The dose of modulator was based on the Human Dose Equivalent (HDE) and is summarized below in Table 4. For intranasal dose administration, the dose was held constant at 10% of the HDE.
On the day of sacrifice, the left lung was clamped off at the level of the extrapulmonary bronchi, removed and frozen on dry ice. The left lung was homogenized and processed for luciferase expression using Promega's luciferase assay system (Madison, Wis.). Luminescence was measured using the Berthold AutoLumat LB953 instrument. Samples were normalized for total protein using Pierce's Coomassie Plus Protein Assay Reagent (Rockford, Ill.).

mouse lung [6] = assay: AV.LacZ gene transfer to mouse lung with Z-LLL (X-gal morphometry); format: in vivo
Method: In vivo studies in mice. Animal studies were performed in accordance with the institutional guidelines of the University of Iowa. To determine the effect of the proteasome inhibitor on AAV mediated gene transfer in mouse lung, 6 week-old BALB/c mice were lightly anesthetized using a methoxyflurane chamber. AV.LacZ (5×10^10 particles) was administered alone or with 400 μM Z-LLL in a 10 μl instillation by nasal aspiration as described by Walters et al. (2000). To prevent unforeseen toxicity of DMSO solvent, the proteasome inhibitor Z-LLL was dissolved in ethanol as a 40 mM stock solution and was included in the viral inoculum at 1% final concentration. Viral infection controls in the absence of Z-LLL also contained a 1% final concentration of ethanol. […] The trachea was incubated and instilled at 10 cm of water pressure with the following solutions in order: PBS, 0.5% glutaraldehyde, 1 mM MgCl2/PBS, and finally X-gal staining reagent for an overnight incubation at room temperature. The X-gal stained mouse lungs were then post fixed in 10% neutral buffered formalin for 48 hours at room temperature and cryopreserved in serial 10%, 20% and 30% sucrose/PBS solutions. Lungs (N=3 for each condition) were embedded in OCT (optimal cutting temperature; Baxter, Warrendale, Pa.) and 15 μm serially sections were analyzed for gene transfer by calculating the percentage of positive cells in the airway epithelium. The diameter of the airway was recorded for classification (>360 μm, 260-350 μm, 160-250 μm, <150 μm) of results following morphometric analysis. Greater than 150 airway cross-sections were quantified for each experimental condition.

[7] = 400 μM Z-LLL intranasal, 150 days

Compound	concentration at which transduction was enhanced (A549 cells)	induction of rAAV transduction (A549 cells)	rAAV transduction [1]	induction of rAAV transduction (IB3 cells [2])	solubility in ethanol (Solubility in ethanol)	fraction of viral DNA in the nuclear compartment (IB3 cells [3])	concentration at which transduction was enhanced [4]	CpG methylation of the γ-ENaC promoter (protection from HpaII digestion) (γ-ENaC gene promoter)	induction of AAV2 and AAV5 apical infection of polarized cells ([4]; in the presence of doxorubicin)	luciferase expression, Average (mouse lung [5]; both sexes)	luciferase expression, Average (mouse lung [5]; female)	luciferase expression, Average (mouse lung [5]; male)	airway cells transduced by AV.LacZ, average (mouse lung [6]; [7])	airways cells in the smaller bronchioles (<150 mm) expressing β-galactosidase (mouse lung [6]; [7])	range of transgene expression in distal airways (mouse lung [6]; [7])	range of transgene expression in proximal airways (mouse lung [6]; [7])	transduction efficiency in larger bronchioles (>350 mm), mean % of the airway epithelium (mouse lung [6]; [7])	transgene expression by X-gal staining (mouse lung [6]; 3 and 10 days post infection)
N-acetyl-L-leucinyl-L-leucinal-L-norleucinal [LLnL]	200 to 400 µM	10-fold lower levels of induction	significantly increased rAAV transduction	> 200 fold	poor solubility	significantly increased the fraction of viral DNA in the nuclear compartment	40 µM											
COc1cccc2c1C(=O)c1c(O)c3c(c(O)c1C2=O)C[C@@](O)(C(=O)CO)C[C@@H]3O[C@H]1C[C@H](N)[C@H](O)[C@H](C)O1 [doxorubicin]	5 µM	200 fold		200 fold		significantly increased the fraction of viral DNA in the nuclear compartment	5 µM	significant Dox-dependent protection from HpaII digestion	200 to 600 fold	1.77E+06	5.44E+05	*4.21E+06						
CC(C)C[C@@H](C=O)NC(=O)[C@H](CC(C)C)NC(=O)[C@H](CC(C)C)NC(=O)OCc1ccccc1 [Z-LLL, N-carbobenzoxyl-L-leucinyl-L-leucinyl-L-leucinal] (Cbz-Leu-Leu-Leu-aldehyde)			significantly increased rAAV transduction										about 5.88%	1.37±0.41%	0 to 4%	5 to 18%	10.36±1.63% and 10.36+/−1.63%	no detectable transgene expression
